We go through four compounds from patent publication US11713338B2, “Cyclic peptides multimers targeting α-4-β-7 integrin” (priority 2016, dated 2023).

Like-named read-outs stand apart in the source and are kept apart here.

The target of experiment [1] is T1, VCAM-1 binding to α4β7-negative Th memory cells (Homo sapiens, UniProt P05556+P13612).
T1 construct: endogenous in cells
Briefly: VCAM-1 competition / receptor occupancy assay in human whole blood, α4β7-negative Th memory cells. The class given is cell-based. How it is done:
Analyte Competition Assay in CD4+ Integrin α4+β7-Lo Memory T Cells
Receptor occupancy in primary cells was determined by measuring the amount of biotinylated human recombinant MAdCAM-1-FC or human recombinant VCAM-1-Fc bound to selected cell populations using flow cytometry. Human recombinant MAdCAM-1-FC or human recombinant VCAM-1-FC (R&D systems) were biotinylated using commercially available reagents and protocol (Pierce).
Whole blood was collected from human donors in sodium heparin tubes. A volume of 100 microL of blood was incubated with compound and 4 mM MnCL2 for 1 hour at room temperature. Cells were washed twice with 1 mL of 1X DPBS calcium magnesium free (CMF) (ThermoFisher Scientific) and resuspended in 100 microL of DPBS CMF.
Biotinylated human recombinant MAdCAM-1-Fc or VCAM-1-Fc were added at saturating concentration and incubated at room temperature for 1 hour. A volume of 2 mL of 1X BD FACS Lyse (BD Biosciences) was then added and the mixture was incubated for 8-12 minutes at room temperature in the dark to lyse red blood cells. Cells were washed with 1 mL stain buffer-FBS (BD Biosciences) and resuspended in 100 μl stain Buffer-FBS (BD Biosciences) containing 4 mM MnCl2. Biotinylated-rhMAdCAM-1 was applied at a saturating concentration of 1200 ng/mL to compete with test article binding and incubated at room temperature for 1 hour. Cells were then washed with 1 mL stain buffer-FBS and resuspended in […] stain buffer-FBS. The cells were incubated in the dark for 30 minutes at room temperature with 1 ul Streptavidin APC (Biolegend 0.2 mg/ml) and a panel of antibodies for the detection of memory T helper a4b7-positive cells subset. And amount of 5.0 ul each of the following antibodies were used; CD45 FITC (BioLegend 200 ug/ml), CD29 APC Cy7 (BioLegend 100 ug/ml), Integrin beta7 PE, (BioLegend concentration 50 μg/mL), CD49d V421 (BioLegend 50 μg/mL), CD3 V510 (BioLegend 30 μg/mL), CD4 PECy7 (BioLegend 100 μg/mL), CD45RO PerCP, BioLegend 200 μg/mL). The cells were then washed with stain-buffer-FBS and resuspended in 150 microL stain buffer-FBS for acquisition on the flow cytometer (BD FACSCanto™ flow cytometer and BDFACSDiva™ software). FACS data was acquire by electronic gating on the basis of forward versus side scatter, The cytometer was set to collect 20,000 events in each tube. Cell population were determined using the following markers, CD45+, CD3+, CD4+, CD45RO+, CD49d+, integrin b7, biotinylated ligands.
Compound receptor occupancy was defined as the decrease in the number of integrin β7+ or integrin β7-lo cells binding biotinylated rhMAdCAM-1 or rhVCAM-1, respectively.
(§1) Receptor occupancy was calculated with the following equation: 100−((% ligand-positive cells with compound/% ligand-positive cells DMSO)*100) In Vivo T Lymphocyte Trafficking Analysis in Mouse Model of Colitis

Experiment [2] concerns α4β7+ T helper memory lymphocytes in mesenteric lymph nodes. Briefly: In vivo T lymphocyte trafficking analysis in DSS mouse model of colitis. The conditions noted are these: DSS-treated mice. As to the method: as §1
Animal care: The animal care facility employed is accredited by the Canadian Council on Animal Care (CCAC). This study was approved by a certified Animal Care Committee and complied with CACC standards and regulations governing the use of animals for research. The animals were housed under standardized environmental conditions. A standard certified commercial rodent diet was provided ad libitum. Tap water was provided ad libitum at all times.
Dextran sulfate sodium (DSS) was administered to C57Bl/6 female mice for five days through addition to their drinking water at 3%. Body weight and disease activity index (“DAI”) were measured on Day 5 in order to distribute DSS-treated animals in uniform groups prior to dosing. DAI was scored based on the severity three specific symptoms associated with colitis: 1—blood in stool (negative hemoccult, positive hemoccult, blood traces in stool visible, rectal bleeding); 2—stool consistency (normal, soft but still formed, very soft, diarrhea); 3—body weight loss. […]
Statistical analysis was performed using GraphPad Prism. Differences among groups were evaluated by two-way ANOVA, with a 95% confidence interval.

The mark [3] stands for this setting: human whole blood, inhibition of VCAM binding to α4β7-negative Th memory cells, FACS, read-out: VCAM FACS α4+β7− Th mem.

T1 sequence (P13612 34-1032): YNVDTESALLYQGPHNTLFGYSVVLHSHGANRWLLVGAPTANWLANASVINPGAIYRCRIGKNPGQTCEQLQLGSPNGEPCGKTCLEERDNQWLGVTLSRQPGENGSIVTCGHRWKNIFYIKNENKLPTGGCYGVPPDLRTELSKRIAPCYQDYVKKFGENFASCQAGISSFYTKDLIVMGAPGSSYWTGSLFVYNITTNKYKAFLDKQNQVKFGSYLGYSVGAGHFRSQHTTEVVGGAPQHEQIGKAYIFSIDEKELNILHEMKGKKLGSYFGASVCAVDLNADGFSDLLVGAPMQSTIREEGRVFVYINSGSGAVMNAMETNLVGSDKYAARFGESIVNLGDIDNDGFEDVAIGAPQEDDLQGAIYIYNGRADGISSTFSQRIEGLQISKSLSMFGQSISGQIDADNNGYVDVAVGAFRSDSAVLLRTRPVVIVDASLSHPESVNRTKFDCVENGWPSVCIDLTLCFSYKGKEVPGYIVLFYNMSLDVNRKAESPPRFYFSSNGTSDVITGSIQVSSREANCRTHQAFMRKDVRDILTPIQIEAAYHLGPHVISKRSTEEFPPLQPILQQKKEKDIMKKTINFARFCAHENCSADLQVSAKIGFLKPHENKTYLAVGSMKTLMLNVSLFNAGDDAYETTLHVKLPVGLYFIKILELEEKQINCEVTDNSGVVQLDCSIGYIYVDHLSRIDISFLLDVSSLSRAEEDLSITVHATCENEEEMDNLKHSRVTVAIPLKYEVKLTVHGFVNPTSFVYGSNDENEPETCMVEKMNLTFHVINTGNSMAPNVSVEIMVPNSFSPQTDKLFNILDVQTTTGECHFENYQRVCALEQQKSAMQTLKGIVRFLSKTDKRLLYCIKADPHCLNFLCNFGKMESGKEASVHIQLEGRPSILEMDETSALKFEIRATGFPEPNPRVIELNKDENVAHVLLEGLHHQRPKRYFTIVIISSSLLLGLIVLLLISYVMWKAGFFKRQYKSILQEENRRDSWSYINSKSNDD
T1 sequence (P05556 21-798): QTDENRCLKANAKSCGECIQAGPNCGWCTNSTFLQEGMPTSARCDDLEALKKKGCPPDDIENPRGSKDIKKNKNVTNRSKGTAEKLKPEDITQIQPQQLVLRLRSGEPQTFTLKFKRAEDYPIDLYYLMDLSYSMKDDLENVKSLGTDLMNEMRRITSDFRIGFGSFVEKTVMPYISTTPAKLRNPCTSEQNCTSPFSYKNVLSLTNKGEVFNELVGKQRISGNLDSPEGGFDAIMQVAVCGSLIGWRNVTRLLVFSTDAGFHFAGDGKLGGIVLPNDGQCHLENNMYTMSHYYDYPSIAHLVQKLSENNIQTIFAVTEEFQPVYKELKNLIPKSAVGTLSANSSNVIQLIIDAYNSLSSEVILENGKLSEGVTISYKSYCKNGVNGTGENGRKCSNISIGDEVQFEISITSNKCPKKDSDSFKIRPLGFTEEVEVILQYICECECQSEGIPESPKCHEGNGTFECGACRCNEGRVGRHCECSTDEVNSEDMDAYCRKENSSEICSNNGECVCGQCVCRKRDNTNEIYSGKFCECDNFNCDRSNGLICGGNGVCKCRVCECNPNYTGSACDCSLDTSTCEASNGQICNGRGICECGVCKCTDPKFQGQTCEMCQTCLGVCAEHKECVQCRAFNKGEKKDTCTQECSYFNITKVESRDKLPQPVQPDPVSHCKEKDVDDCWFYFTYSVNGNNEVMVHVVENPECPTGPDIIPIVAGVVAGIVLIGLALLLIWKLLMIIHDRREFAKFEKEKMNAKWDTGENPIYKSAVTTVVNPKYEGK

For the compound `CC(C)C[C@@H]1NC(=O)c2ccc(-c3ccc(N4CCN(C(=O)CCOCCOCCOCCOCCOCCOCCOCCOCCOCCOCCC(=O)N5CCN(c6ccc(-c7ccc8cc7CNC(=O)[C@@H]7CCCN7[C@H](C(=O)NC(C)(C)C)[C@H](C)NC(=O)[C@H]([C@@H](C)O)NC(=O)[C@H](CC(=O)O)NC(=O)[C@H](CC(C)C)NC8=O)cc6)CC5)CC4)cc3)c(c2)CNC(=O)[C@@H]2CCCN2[C@H](C(=O)NC(C)(C)C)[C@H](C)NC(=O)[C@H]([C@@H](C)O)NC(=O)[C@H](CC(=O)O)NC1=O` [Compound 511], the IC50 in experiment [1] (setting [3]) was 20 µM.
Consider `CC(C)C[C@@H]1NC(=O)c2ccc(-c3ccc(N4CCN(CCC(=O)N5CCN(c6ccc(-c7ccc8cc7CNC(=O)[C@@H]7CCCN7[C@H](C(=O)NC(C)(C)C)[C@H](C)NC(=O)[C@H]([C@@H](C)O)NC(=O)[C@H](CC(=O)O)NC(=O)[C@H](CC(C)C)NC8=O)cc6)CC5)CC4)cc3)c(c2)CNC(=O)[C@@H]2CCCN2[C@H](C(=O)NC(C)(C)C)[C@H](C)NC(=O)[C@H]([C@@H](C)O)NC(=O)[C@H](CC(=O)O)NC1=O` [Compound 482], for which the IC50 in experiment [1] (setting [3]) is no less than 4 µM.
Take `CC(C)C[C@@H]1NC(=O)C[C@H](CCCCN)N(C)C(=O)[C@H](CCCCNC(=O)CCCCCCCCC(=O)NCCCC[C@@H]2NC(=O)[C@@H]3CCCN3[C@H](C(=O)NC(C)(C)C)[C@H](C)NC(=O)[C@H]([C@@H](C)O)NC(=O)[C@H](CC(=O)O)NC(=O)[C@H](CC(C)C)NC(=O)C[C@H](CCCCN)N(C)C2=O)NC(=O)[C@@H]2CCCN2[C@H](C(=O)NC(C)(C)C)[C@H](C)NC(=O)[C@H]([C@@H](C)O)NC(=O)[C@H](CC(=O)O)NC1=O` [Compound 530]: the IC50 in experiment [1] (setting [3]) is greater than 4 µM; in experiment [1] (whole blood from a single donor, FIG. 11, up to 4000 nM, read-out: IC50, VCAM binding) it was no less than 0.6 µM.
Turning to `CC(C)C[C@@H]1NC(=O)c2ccc(-c3ccc(N4CCN(C(=O)c5ccccc5-c5ccccc5C(=O)N5CCN(c6ccc(-c7ccc8cc7CNC(=O)[C@@H]7CCCN7[C@H](C(=O)NC(C)(C)C)[C@H](C)NC(=O)[C@H]([C@@H](C)O)NC(=O)[C@H](CC(=O)O)NC(=O)[C@H](CC(C)C)NC8=O)cc6)CC5)CC4)cc3)c(c2)CNC(=O)[C@@H]2CCCN2[C@H](C(=O)NC(C)(C)C)[C@H](C)NC(=O)[C@H]([C@@H](C)O)NC(=O)[C@H](CC(=O)O)NC1=O` [Compound 517], the “reduction of the number of α4β7+ positive lymphocytes in mesenteric lymph nodes” value in experiment [2] (80 mg/kg orally daily days 6 to 9) turned out to be 60%. In addition, the “reduction in α4β7+ T helper memory lymphocytes in mesenteric lymph nodes, dose dependence” value in experiment [2] (FIG. 9) is reported as “dose-dependent reduction”. In addition, the IC50 in experiment [1] (setting [3]) was determined as 0.607 µM.
